“And” between values parts separate entries of the source, which are not always exact repeats. Identical values can stand only once.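 Test compounds were applied to cells in 96-well plates for 48 hours at 5 doses. GI50 is the concentration that inhibits growth by half. TGI: concentration producing complete growth inhibition.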
Columns and labels:
Assay in all cases: NCI-60 cell line screen, 48 h
786-0 renal = test system: 786-0 renal
A549 NSCLC = test system: A549 NSCLC
ACHN renal = test system: ACHN renal
CAKI-1 renal = test system: CAKI-1 renal
CCRF-CEM leukemia = test system: CCRF-CEM leukemia
COLO 205 colon = test system: COLO 205 colon
DLD-1 colon = test system: DLD-1 colon
DMS 273 small cell lung = test system: DMS 273 small cell lung
DU-145 prostate = test system: DU-145 prostate
EKVX NSCLC = test system: EKVX NSCLC
HCC-2998 colon = test system: HCC-2998 colon
HCT-116 colon = test system: HCT-116 colon
HCT-15 colon = test system: HCT-15 colon
HL-60(TB) leukemia = test system: HL-60(TB) leukemia
HOP-18 NSCLC = test system: HOP-18 NSCLC
HOP-62 NSCLC = test system: HOP-62 NSCLC
HOP-92 NSCLC = test system: HOP-92 NSCLC
HS 578T breast = test system: HS 578T breast
HT29 colon = test system: HT29 colon
K-562 leukemia = test system: K-562 leukemia
KM12 colon = test system: KM12 colon
KM20L2 colon = test system: KM20L2 colon
LOX IMVI melanoma = test system: LOX IMVI melanoma
M14 melanoma = test system: M14 melanoma
M19-MEL melanoma = test system: M19-MEL melanoma
MALME-3M melanoma = test system: MALME-3M melanoma
MCF7 breast = test system: MCF7 breast
MDA-MB-231 breast = test system: MDA-MB-231 breast
MDA-MB-435 = test system: MDA-MB-435
MDA-N = test system: MDA-N
MOLT-4 leukemia = test system: MOLT-4 leukemia
NCI-H226 lung = test system: NCI-H226 lung
NCI-H23 lung = test system: NCI-H23 lung

Q: Which GI50 (786-0 renal) does the source give for `C=C1C(=O)C23CC1CCC2C12CO[C@@]3(O)[C@@H](O)C1C(C)(C)C=CC2=O` (some centres undefined) here?
A: Its GI50 is 1.75 µM.

Q: What about the TGI (786-0 renal) of the same compound?
A: Its TGI is 1.24 µM and 3.59 µM.

Q: And the GI50 (A549 NSCLC)?
A: The GI50 was 16.3 µM.

Q: And the TGI (A549 NSCLC)?
A: The TGI was 7.63 µM and 34.3 µM.

Q: And the GI50 (ACHN renal)?
A: Its GI50 is 3.36 µM.

Q: And the TGI (ACHN renal)?
A: The TGI was 1.42 µM and 11.5 µM.

Q: And the TGI (CAKI-1 renal)?
A: The TGI was 4.13 µM.

Q: What about the GI50 (CCRF-CEM leukemia) of the same compound?
A: The GI50 was 0.759 µM.

Q: And the GI50 (COLO 205 colon)?
A: Its GI50 is 3.18 µM.

Q: And the TGI (COLO 205 colon)?
A: The TGI was 1.86 µM and 10.1 µM.

Q: What about the TGI (DLD-1 colon) of the same compound?
A: The TGI was 2.22 µM.

Q: And the TGI (DMS 273 small cell lung)?
A: The TGI was 1.3 µM.

Q: And the TGI (DU-145 prostate)?
A: The TGI was 41.3 µM.

Q: What about the GI50 (EKVX NSCLC) of the same compound?
A: The GI50 was 18.7 µM.

Q: And the TGI (EKVX NSCLC)?
A: Its TGI is 11.8 µM and 34.7 µM.

Q: What about the GI50 (HCC-2998 colon) of the same compound?
A: Its GI50 is 20.7 µM.

Q: And the GI50 (HCT-116 colon)?
A: Its GI50 is 2.9 µM.

Q: What about the TGI (HCT-116 colon) of the same compound?
A: The TGI was 1.01 µM and 9.03 µM.

Q: And the GI50 (HCT-15 colon)?
A: The GI50 was 1.81 µM.

Q: And the TGI (HCT-15 colon)?
A: Its TGI is 1.86 µM and 3.65 µM.

Q: And the GI50 (HL-60(TB) leukemia)?
A: Its GI50 is 0.434 µM.

Q: And the TGI (HOP-18 NSCLC)?
A: Its TGI is 2.2 µM.

Q: What about the GI50 (HOP-62 NSCLC) of the same compound?
A: The GI50 was 25.2 µM.

Q: What about the TGI (HOP-62 NSCLC) of the same compound?
A: The TGI was 14.4 µM and 67.2 µM.

Q: What about the GI50 (HOP-92 NSCLC) of the same compound?
A: Its GI50 is 2.92 µM.

Q: And the TGI (HOP-92 NSCLC)?
A: Its TGI is 1.46 µM and 5.41 µM.

Q: What about the TGI (HS 578T breast) of the same compound?
A: Its TGI is 81.6 µM.

Q: And the GI50 (HT29 colon)?
A: Its GI50 is 2.12 µM.

Q: And the TGI (HT29 colon)?
A: Its TGI is 0.756 µM and 5.49 µM.

Q: And the TGI (K-562 leukemia)?
A: Its TGI is > 100 µM.

Q: What about the TGI (KM12 colon) of the same compound?
A: Its TGI is 29.5 µM.

Q: And the TGI (KM20L2 colon)?
A: Its TGI is 4.39 µM.

Q: And the TGI (LOX IMVI melanoma)?
A: The TGI was 11.5 µM.

Q: And the TGI (M14 melanoma)?
A: The TGI was 6.1 µM.

Q: What about the TGI (M19-MEL melanoma) of the same compound?
A: Its TGI is 1.72 µM.

Q: And the GI50 (MALME-3M melanoma)?
A: The GI50 was 6.11 µM.

Q: What about the TGI (MCF7 breast) of the same compound?
A: The TGI was 11.6 µM.

Q: What about the TGI (MDA-MB-231 breast) of the same compound?
A: Its TGI is 12 µM.

Q: And the TGI (MDA-MB-435)?
A: The TGI was 11.1 µM.

Q: And the TGI (MDA-N)?
A: Its TGI is 7.71 µM.

Q: And the GI50 (MOLT-4 leukemia)?
A: The GI50 was 2.6 µM.

Q: What about the TGI (MOLT-4 leukemia) of the same compound?
A: Its TGI is 2.15 µM and 9.87 µM.

Q: What about the TGI (NCI-H226 lung) of the same compound?
A: The TGI was 12.5 µM.

Q: And the GI50 (NCI-H23 lung)?
A: The GI50 was 2.9 µM.
